pIC50: −log10 of the molar value.

IC50 data for 11 compounds are collected here from US10604535B2, “Compounds, compositions and methods” (Denali Therapeutics Inc., priority 2016, dated 2020).

For this test, the system named is FADD-deficient Jurkat cells. The test can be described thus: Cellular necroptosis assay (human TNFα-induced necrosis, CellTiter-Glo). It counts as cell-based. The following applies: Homo sapiens, Jurkat, 48 h, TNFα 10 ng/mL, read-out: Cell IC50.
On to `CN1C(=O)[C@@H](NC(=O)c2ncc(C3(c4ccccc4)CC3)[nH]2)COc2ccccc21` [Example 78, (S)—N-(5-methyl-4-oxo-2,3,4,5-tetrahydrobenzo[b][1,4]oxazepin-3-yl)-5-(1-phenylcyclopropyl)-1H-imidazole-2-carboxamide], for which the pIC50 is 6.00 to 10.00.

For the compound `CN1C(=O)[C@@H](NC(=O)c2nn(Cc3cocn3)cc2F)COc2cccnc21` [Example 209, (S)-4-fluoro-N-(5-methyl-4-oxo-2,3,4,5-tetrahydropyrido[3,2-b][1,4]oxazepin-3-yl)-1-(oxazol-4-ylmethyl)-1H-pyrazole-3-carboxamide], the pIC50 was 6.00 to 10.00.

Consider `CN1C(=O)[C@@H](NC(=O)c2nn(Cc3ccccc3)cc2F)COc2ccccc21` [Example 64, (S)-1-benzyl-4-fluoro-N-(5-methyl-4-oxo-2,3,4,5-tetrahydrobenzo[b][1,4]oxazepin-3-yl)-1H-pyrazole-3-carboxamide], for which the pIC50 is 6.00 to 10.00.

Consider `CN1C(=O)[C@@H](NC(=O)c2cc(C3(c4ccccc4)CC3)[nH]n2)COc2ccccc21` [Example 72, (S)—N-(5-methyl-4-oxo-2,3,4,5-tetrahydrobenzo[b][1,4]oxazepin-3-yl)-5-(1-phenylcyclopropyl)-1H-pyrazole-3-carboxamide], for which the pIC50 is 6.00 to 10.00.

Regarding `CN1C(=O)[C@@H](NC(=O)c2coc(C3(c4ccccc4)CC3)n2)COc2ccccc21` [Example 61, (S)—N-(5-methyl-4-oxo-2,3,4,5-tetrahydrobenzo[b][1,4]oxazepin-3-yl)-2-(1-phenylcyclopropyl)oxazole-4-carboxamide], the pIC50 is 6.00 to 10.00.

For `CN1C(=O)[C@@H](NC(=O)c2cc(Cc3ccccc3)[nH]n2)[C@H]2C[C@H]2c2cccnc21` [Example 80A, 5-benzyl-N-((1aS,2S,8bR)-4-methyl-3-oxo-1,1a,2,3,4,8b-hexahydrocyclopropa[d]pyrido[2,3-b]azepin-2-yl)-1H-pyrazole-3-carboxamide], the pIC50 was 6.00 to 10.00.

For the compound `CN1C(=O)[C@H](NC(=O)c2nnc(Cc3ccccc3)[nH]2)C[C@H](F)c2ccccc21` (mixture of isomers) [Example 11B, 5-benzyl-N-((3S,5R)-5-fluoro-1-methyl-2-oxo-2,3,4,5-tetrahydro-1H-benzo[b]azepin-3-yl)-4H-1,2,4-triazole-3-carboxamide and 5-benzyl-N-((3R,5S)-5-fluoro-1-methyl-2-oxo-2,3,4,5-tetrahydro-1H-benzo[b]azepin-3-yl)-4H-1,2,4-triazole-3-carboxamide], the pIC50 is 6.00 to 10.00.

Turning to `CN1C(=O)[C@@H](NC(=O)c2ncc(Cc3ccccc3)s2)COc2ccccc21` [Example 5, (S)-5-benzyl-N-(5-methyl-4-oxo-2,3,4,5-tetrahydrobenzo[b][1,4]oxazepin-3-yl)thiazole-2-carboxamide], the pIC50 was 6.00 to 10.00.

In the case of `O=C(N[C@H]1COc2ccccc2-n2ccnc21)c1nnc(Cc2ccccc2)[nH]1` [Example 68A, (R)-5-benzyl-N-(4,5-dihydrobenzo[b]imidazo[1,2-d][1,4]oxazepin-4-yl)-4H-1,2,4-triazole-3-carboxamide], the pIC50 was 6.00 to 10.00.

In the case of `CN1C(=O)[C@@H](NC(=O)c2nnc(Cc3ccc(F)cc3)o2)[C@H]2C[C@H]2c2nccnc21` [Example 223, 5-(4-fluorobenzyl)-N-((7S,7aS,8aR)-5-methyl-6-oxo-5,6,7,7a,8,8a-hexahydrocyclopropa[d]pyrazino[2,3-b]azepin-7-yl)-1,3,4-oxadiazole-2-carboxamide], the pIC50 was 6.00 to 10.00.

As to `CN1C(=O)[C@@H](NC(=O)c2ncc(C3(c4ccccc4)CC3)s2)COc2cccnc21` [Example 63, (S)—N-(5-methyl-4-oxo-2,3,4,5-tetrahydropyrido[3,2-b][1,4]oxazepin-3-yl)-5-(1-phenylcyclopropyl)thiazole-2-carboxamide], the pIC50 was 6.00 to 10.00.

As usually defined, the pIC50 is −log10 of the IC50, conventionally taken in molar units.
